Tests used:
[1] = Bubble pressure tensiometry (dynamic surface tension, calculated CMC); type: physicochemical; settings: for Calculated CMC: bubble tensiometry
Description: Dynamic surface tensions of certain formulations were measured using a KRÜSS BP100 BPT Mobile bubble pressure tensiometer. Samples of the solution of Example 7 were tested by adding the test solution to a glass dish and lowering the disposable capillary tip and temperature probe into the solution. The dynamic setting was selected, and the instrument was set to collect 30 data points, the bubble age increasing from about 10 ms to about 30,000 ms.
Bubble tensiometry was used to calculate the Critical Micelle Concentration (CMC) value for each of the solutions.
FIG. 1 presents a comparison of the bubble age to surface tension for RM14A at CMC, sub-CMC, and super-CMC concentrations. FIG. 2 presents a comparison of the bubble age to surface tension for RM14B at CMC, sub-CMC, and super-CMC concentrations. FIG. 3 presents a comparison of the bubble age to surface tension for RM14C at CMC, sub-CMC, and super-CMC concentrations. FIG. 4 presents a comparison of the bubble age to surface tension for RM12A, RM13A, RM14A, and RM15A at super-CMC concentrations. FIG. 5 presents a comparison of the bubble age to surface tension for RM12A, RM13A, RM14A, and RM15A at CMC concentrations. FIG. 6 presents a comparison of the bubble age to surface tension for RM12A, RM13A, RM14A, and RM15A at CMC concentrations. FIG. 7 presents a comparison of bubble age to surface tension for RM12A, RM13A, RM14A, and RM15A at sub-CMC concentrations.

[2] = Conductivity testing (calculated CMC); type: physicochemical; settings: for Calculated CMC, All Points: all data points; for Calculated CMC, Average: average of outer, inner, all points; for Calculated CMC, Inner Points: inner data points; for Calculated CMC, Outer Points: outer data points
Description: Conductivities were measured using a VWR 23609-216 Pure H2O Tester conductivity meter. The meter probe was submerged into the test solution and swirled gently. Once the meter settled, the value was recorded.
The conductivity of the solutions of Example 7 were tested at dilutions ranging from 0.1 M to 0.001 M. The data was plotted on a logarithmic scale and analyzed in the style of Heard and Ashworth. For each sample, three graphs were reported and fitted with a trend curve: outer data points, inner data points, all data points. […] An average CMC value was determined from the three trend samples (outer data points, inner data points, all data points) in order to more accuracy predict the CMC value.
LINEST was utilized to determine the slope and intercept for each line, and a combination of INTERCEPT and SLOPE was used to determine the intersection of the two fitted lines. The Critical Micelle Concentration (CMC) was determined for each of these plots by the intercept of the two lines. Set forth below in Table 5 is the calculated CMC for each graph and the average CMC.

Row | Compound | Calculated CMC [1] | Calculated CMC, All Points [2] | Calculated CMC, Average [2] | Calculated CMC, Inner Points [2] | Calculated CMC, Outer Points [2] | surface tension versus bubble age (rate and magnitude of reduction) ([1]; sub-CMC, CMC and super-CMC concentrations, FIGS. 1-7)
1 | N=C(NCCCCCCNC(=N)NC(=N)Nc1ccc(Cl)cc1)NC(=N)Nc1ccc(Cl)cc1.O=C(O)[C@H](O)[C@@H](O)[C@H](O)[C@H](O)CO.O=C(O)[C@H](O)[C@@H](O)[C@H](O)[C@H](O)CO [RM12A, Chlorhexidine digluconate] | 0.0168 M | 0.0133 M | 0.0126 M | 0.0128 M | 0.0118 M | –
2 | N=C(NCCCCCCNC(=N)NC(=N)Nc1ccc(Cl)cc1)NC(=N)Nc1ccc(Cl)cc1.O=C(O)[C@H](O)[C@@H](O)[C@H](O)[C@H](O)CO.O=C(O)[C@H](O)[C@@H](O)[C@H](O)[C@H](O)CO [RM12B, Chlorhexidine digluconate] | 0.0195 M | 0.0133 M | 0.0127 M | 0.0131 M | 0.0117 M | –
3 | N=C(NCCCCCCNC(=N)NC(=N)Nc1ccc(Cl)cc1)NC(=N)Nc1ccc(Cl)cc1.O=C(O)[C@H](O)[C@@H](O)[C@H](O)[C@H](O)CO.O=C(O)[C@H](O)[C@@H](O)[C@H](O)[C@H](O)CO [RM12C, Chlorhexidine digluconate] | 0.0195 M | 0.0133 M | 0.0131 M | 0.0143 M | 0.0116 M | –
4 | N=C(NCCCCCCNC(=N)NC(=N)Nc1ccc(Cl)cc1)NC(=N)Nc1ccc(Cl)cc1.O=C(O)C(O)C(O)C(O)C(O)C(O)CO.O=C(O)C(O)C(O)C(O)C(O)C(O)CO [RM13A, Chlorhexidine di-α-glucoheptonate] | 0.0200 M | 0.0132 M | 0.0123 M | 0.0122 M | 0.0115 M | –
5 | N=C(NCCCCCCNC(=N)NC(=N)Nc1ccc(Cl)cc1)NC(=N)Nc1ccc(Cl)cc1.O=C(O)C(O)C(O)C(O)C(O)C(O)CO.O=C(O)C(O)C(O)C(O)C(O)C(O)CO [RM13B, Chlorhexidine di-α-glucoheptonate] | 0.0167 M | 0.0132 M | 0.0126 M | 0.0131 M | 0.0116 M | –
6 | N=C(NCCCCCCNC(=N)NC(=N)Nc1ccc(Cl)cc1)NC(=N)Nc1ccc(Cl)cc1.O=C(O)C(O)C(O)C(O)C(O)C(O)CO.O=C(O)C(O)C(O)C(O)C(O)C(O)CO [RM13C, Chlorhexidine di-α-glucoheptonate] | 0.0198 M | 0.0130 M | 0.0126 M | 0.0134 M | 0.0113 M | –
7 | N=C(NCCCCCCNC(=N)NC(=N)Nc1ccc(Cl)cc1)NC(=N)Nc1ccc(Cl)cc1.O=C(O)C(O)C(O)C(O)C(O)C(O)CO.O=C(O)C(O)C(O)C(O)C(O)C(O)CO [RM14A, Chlorhexidine di-β73-glucoheptonate] | 0.0168 M | 0.0130 M | 0.0126 M | 0.0135 M | 0.0113 M | –
8 | N=C(NCCCCCCNC(=N)NC(=N)Nc1ccc(Cl)cc1)NC(=N)Nc1ccc(Cl)cc1.O=C(O)C(O)C(O)C(O)C(O)C(O)CO.O=C(O)C(O)C(O)C(O)C(O)C(O)CO [RM14B, Chlorhexidine di-β73-glucoheptonate] | 0.0167 M | 0.0132 M | 0.0132 M | 0.0152 M | 0.0113 M | –
9 | N=C(NCCCCCCNC(=N)NC(=N)Nc1ccc(Cl)cc1)NC(=N)Nc1ccc(Cl)cc1.O=C(O)C(O)C(O)C(O)C(O)C(O)CO.O=C(O)C(O)C(O)C(O)C(O)C(O)CO [RM14C, Chlorhexidine di-β73-glucoheptonate] | 0.0166 M | 0.0131 M | 0.0133 M | 0.0156 M | 0.0111 M | –
10 | N=C(NCCCCCCNC(=N)NC(=N)Nc1ccc(Cl)cc1)NC(=N)Nc1ccc(Cl)cc1.O=C(O)C(O)C(O)C(O)C(O)C(O)CO.O=C(O)C(O)C(O)C(O)C(O)C(O)CO [RM15, chlorhexidine di-β81-glucoheptonate] | – | – | – | – | – | fall more rapidly and to a lower value than either the di-α-glucoheptonate or the comparative digluconate salt
11 | N=C(NCCCCCCNC(=N)NC(=N)Nc1ccc(Cl)cc1)NC(=N)Nc1ccc(Cl)cc1.O=C(O)C(O)C(O)C(O)C(O)C(O)CO.O=C(O)C(O)C(O)C(O)C(O)C(O)CO [RM15A, Chlorhexidine di-β81-glucoheptonate] | 0.0173 M | 0.0133 M | 0.0133 M | 0.0154 M | 0.0113 M | –
